The values below come from patent publication US20260007758A1, “SO[…]-2 RECEPTOR (SST2R) NON-PEPTIDE DRUG CONJUGATES AND USES THEREOF” (Crinetics Pharmaceuticals, Inc., priority 2024, published 2026).

*1 amine or outer side, *2 acyl side, *3 side chain or, on linkers, in order; H or OH if unused. Where a SMILES comes first, the peptide text is derived from it. [ ]: non-standard residue; d: D form. The star is where a group is joined. X3 = Cc1cc(F)cc(-c2cnc(NCCNC(=O)CCOCCOCCOCCOCCC(=O)*)c(-c3nc4ccc(Cl)cc4[nH]3)c2N2CCC(N)CC2)c1; Dolaproine = CO[C@@H]([C@@H]1CCCN1)[C@@H](C)C(=O)O; Dil = CC[C@H](C)[C@H](NC)[C@@H](CC(=O)O)OC; PABC = O=C(OCc1ccc(N[*:1])cc1)[*:2]; X2 = C[C@@H](N*)[C@@H](O)c1ccccc1; Cit = NC(=O)NCCC[C@H](N)C(=O)O; NMeV = CN[C@H](C(=O)O)C(C)C; PEG1 = NCCOCCC(=O)O; Ahx = NCCCCCC(=O)O

Format in all cases: cell-based
One experiment has as its target T1, SST2 (Homo sapiens, UniProt P30874).
T1 construct: host or cells: PathHunter CHO-K1 SST2 cells
Kind of experiment: PathHunter CHO-K1 SST2 Internalization Assay. To be noted: PathHunter CHO-K1 SST2 cells; 90 min at 37 C; luminescence; read-out: Internalization EC50. Put shortly:
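Four-parameter nonlinear fits of background-corrected luminescence (duplicate means) gave IC50s. NDCs were serially diluted 1:3 over 11 points from a 10 uM final top concentration and incubated 90 min at 37 C with human SST2 CHO-K1 cells plated 48 h earlier at 2500/well. Beta-Glo read-out developed 60 min at RT.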

In experiment [1] the target is T2, human somatostatin receptor subtype 2 (Homo sapiens, UniProt P30874).
T2 construct: expressed in transfected cells
T2 sequence (P30874 whole entry): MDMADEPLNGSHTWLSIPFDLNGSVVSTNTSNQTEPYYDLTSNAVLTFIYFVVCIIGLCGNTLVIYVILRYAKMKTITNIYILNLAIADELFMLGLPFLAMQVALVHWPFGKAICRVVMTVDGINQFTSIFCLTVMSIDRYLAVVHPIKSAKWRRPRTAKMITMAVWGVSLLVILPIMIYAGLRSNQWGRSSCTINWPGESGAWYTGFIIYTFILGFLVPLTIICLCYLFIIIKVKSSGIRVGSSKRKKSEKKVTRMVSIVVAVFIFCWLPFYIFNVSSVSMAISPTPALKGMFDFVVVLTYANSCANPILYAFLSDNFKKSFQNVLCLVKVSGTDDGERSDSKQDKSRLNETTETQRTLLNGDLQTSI
The experiment can be described thus: Functional assay for SSTR2 agonists (HTRF cAMP). To be noted: CHO-K1 cells stably expressing human SST2; NKH477-stimulated cAMP; 20 min at 37 C; read-out: hSST2 cAMP Avg EC50. The procedure, abridged: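 Agonist activity read as fall in intracellular cAMP: HTRF 665/620 nm ratio regressed to a cAMP standard curve, EC50 fitted. Stable human SSTR2 CHO-K1 cells exposed 20 min at 37 °C to compound, final concentrations typically 0-10,000 nM.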

For experiment [2], the system named is NCI-H524 human small cell lung cancer cells. Kind of experiment: H524 assay: inhibition of cell proliferation (CellTiter Glo). The following applies: 2 h treatment, washout, additional 70 h incubation. Put shortly:
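Proliferation was measured by CellTiter Glo 70 h after a washout that followed a 2 h pulse of NDC. Doses were an 11-point, two-fold dilution series from 1 uM. IC50 was fitted with a four-parameter model to luminescence-based % inhibition relative to control cells.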

T1 sequence (P30874 whole entry): as above

`CC[C@H](C)[C@@H]([C@@H](CC(=O)N1CCC[C@H]1[C@H](OC)[C@@H](C)C(=O)N[C@H](C)[C@@H](O)c1ccccc1)OC)N(C)C(=O)[C@@H](NC(=O)[C@H](C(C)C)N(C)C(=O)OCc1ccc(NC(=O)[C@H](CCCNC(N)=O)NC(=O)[C@@H](NC(=O)C[C@@H](N)C(=O)NCCOCCNC(=O)c2cc(NCCOCCC(=O)NCCNc3ncc(-c4cc(C)cc(F)c4)c(N4CCC(N)CC4)c3-c3nc4ccc(Cl)cc4[nH]3)cc(C(=O)NCC(=O)O)c2)C(C)C)cc1)C(C)C` [Compound 163]: the values for the 50% effective concentration (EC50) (at SST2; in experiment [1]; in experiment [2]) were 6.3 nM, 0.15 nM and 67 nM, respectively.
Take `CC[C@H](C)[C@@H]([C@@H](CC(=O)N1CCC[C@H]1[C@H](OC)[C@@H](C)C(=O)N[C@H](C)[C@@H](O)c1ccccc1)OC)N(C)C(=O)[C@@H](NC(=O)[C@H](C(C)C)N(C)C(=O)OCc1ccc(NC(=O)[C@H](CCCNC(N)=O)NC(=O)[C@@H](NC(=O)C[C@@H](N)C(=O)NCCOCCOCCC(=O)NCCNc2ncc(-c3cc(C)cc(F)c3)c(N3CCC(N)CC3)c2-c2nc3ccc(Cl)cc3[nH]2)C(C)C)c(O[C@@H]2O[C@H](C(=O)O)[C@@H](O)[C@H](O)[C@H]2O)c1)C(C)C` [Compound 137]: the EC50 at SST2 is 2.8 nM; in experiment [1], 0.27 nM; in experiment [2] it was 850 nM.
With `CC[C@H](C)[C@@H]([C@@H](CC(=O)N1CCC[C@H]1[C@H](OC)[C@@H](C)C(=O)N[C@H](C)[C@@H](O)c1ccccc1)OC)N(C)C(=O)[C@@H](NC(=O)[C@H](C(C)C)N(C)C(=O)OCc1ccc(NC(=O)[C@H](CCCNC(N)=O)NC(=O)[C@@H](NC(=O)C[C@@H](N)C(=O)NCCOCCOCCOCCOCCC(=O)NCCNc2ncc(-c3cc(C)cc(F)c3)c(N3CCC(N)CC3)c2-c2nc3ccc(Cl)cc3[nH]2)C(C)C)c(OCC(=O)O)c1)C(C)C` [Compound 23], the concentration giving a half-maximal response (EC50) on SST2 worked out at 20 nM; in experiment [1], 0.29 nM; in experiment [2], 32 nM.
Regarding `CC[C@H](C)[C@@H]([C@@H](CC(=O)N1CCC[C@H]1[C@H](OC)[C@@H](C)C(=O)N[C@H](C)[C@@H](O)c1ccccc1)OC)N(C)C(=O)[C@@H](NC(=O)[C@H](C(C)C)N(C)C(=O)OCc1ccc(NC(=O)[C@H](C)NC(=O)[C@@H](NC(=O)CCOCCC(=O)NCCNc2ncc(-c3cc(C)cc(F)c3)c(N3CCC(N)CC3)c2-c2nc3ccc(Cl)cc3[nH]2)C(C)C)c(O[C@@H]2O[C@H](C(=O)NCC(=O)O)[C@@H](O)[C@H](O)[C@H]2O)c1)C(C)C` [Compound 33], the results for the EC50 (at SST2; in experiment [1]; in experiment [2]) were 2.5 nM, 0.15 nM and 7 nM, respectively.
On to `CC[C@H](C)[C@@H]([C@@H](CC(=O)N1CCC[C@H]1[C@H](OC)[C@@H](C)C(=O)N[C@H](C)[C@@H](O)c1ccccc1)OC)N(C)C(=O)[C@@H](NC(=O)[C@H](C(C)C)N(C)C(=O)OCc1ccc(NC(=O)C(CCCNC(N)=O)NC(=O)[C@@H](NC(=O)c2cc(NC(=O)CCOCCC(=O)N(C)CC(=O)NCCNc3ncc(-c4cc(C)cc(F)c4)c(N4CCC(N)CC4)c3-c3nc4ccc(Cl)cc4[nH]3)cc(C(=O)NCC(=O)NCCN)c2)C(C)C)cc1)C(C)C` (stereo partly drawn) [Compound 175], for which the figures for the EC50 (on SST2; in experiment [1]; in experiment [2]) were 18 nM, 0.41 nM and 56 nM, respectively.
`CC[C@H](C)[C@@H]([C@@H](CC(=O)N1CCC[C@H]1[C@H](OC)[C@@H](C)C(=O)N[C@H](C)[C@@H](O)c1ccccc1)OC)N(C)C(=O)[C@@H](NC(=O)[C@H](C(C)C)N(C)C(=O)OCc1ccc(NC(=O)[C@H](CCCNC(N)=O)NC(=O)[C@@H](NC(=O)c2cc(NCCOCCC(=O)NCCNc3ncc(-c4cc(C)cc(F)c4)c(N4CCC(N)CC4)c3-c3nc4ccc(Cl)cc4[nH]3)cc(C(=O)NCCC(=O)O)c2)C(C)C)cc1)C(C)C` [Compound 145]: the concentration for a half-maximal effect (EC50) at SST2 came to 17 nM; in experiment [1], 0.38 nM; in experiment [2] it was 78 nM.
Consider `CC[C@H](C)[C@@H]([C@@H](CC(=O)N1CCC[C@H]1[C@H](OC)[C@@H](C)C(=O)N[C@H](C)[C@@H](O)c1ccccc1)OC)N(C)C(=O)[C@@H](NC(=O)[C@H](C(C)C)N(C)C(=O)OCc1ccc(NC(=O)[C@H](CCCNC(N)=O)NC(=O)[C@@H](NC(=O)c2cc(NCCOCCOCCOCCOCCC(=O)NCCNc3ncc(-c4cc(C)cc(F)c4)c(N4CCC(N)CC4)c3-c3nc4ccc(Cl)cc4[nH]3)cc(C(=O)NCC(=O)O)c2)C(C)C)cc1)C(C)C` [Compound 144], for which the EC50 at SST2 worked out at 21 nM; in experiment [1], 0.25 nM; in experiment [2], 81 nM.
As to `CC[C@H](C)[C@@H]([C@@H](CC(=O)N1CCC[C@H]1[C@H](OC)[C@@H](C)C(=O)N[C@H](C)[C@@H](O)c1ccccc1)OC)N(C)C(=O)[C@@H](NC(=O)[C@H](C(C)C)N(C)C(=O)OCc1ccc(NC(=O)[C@H](CCCNC(N)=O)NC(=O)[C@@H](NC(=O)CCCCCNC(=O)[C@H](CCC(=O)O)NC(=O)[C@H](CCC(N)=O)NC(=O)CCOCCOCCOCCOCCC(=O)NCCNc2ncc(-c3cc(C)cc(F)c3)c(N3CCC(N)CC3)c2-c2nc3ccc(Cl)cc3[nH]2)C(C)C)cc1)C(C)C` [Compound 192] (X3-QE[Ahx]V[Cit][PABC][NMeV]V[Dil][Dolaproine]-X2), the EC50 at SST2 was determined as 12 nM; in experiment [1] it was 0.37 nM; in experiment [2], 1300 nM.
In the case of `CC[C@H](C)[C@@H]([C@@H](CC(=O)N1CCC[C@H]1[C@H](OC)[C@@H](C)C(=O)N[C@H](C)[C@@H](O)c1ccccc1)OC)N(C)C(=O)[C@@H](NC(=O)[C@H](C(C)C)N(C)C(=O)OCc1ccc(NC(=O)[C@H](CCCNC(N)=O)NC(=O)[C@@H](NC(=O)CCOCCC(=O)NCCNc2ncc(-c3cc(C)cc(F)c3)c(N3CCC(N)CC3)c2-c2nc3ccc(Cl)cc3[nH]2)C(C)C)c(O[C@@H]2O[C@H](C(=O)N3CCOCC3)[C@@H](O)[C@H](O)[C@H]2O)c1)C(C)C` [Compound 223], the values for the EC50 (on SST2; in experiment [1]; in experiment [2]) were 2.8 nM, 0.054 nM and 9.2 nM, respectively.
As to `CC[C@H](C)[C@@H]([C@@H](CC(=O)N1CCC[C@H]1[C@H](OC)[C@@H](C)C(=O)N[C@H](C)[C@@H](O)c1ccccc1)OC)N(C)C(=O)[C@@H](NC(=O)[C@H](C(C)C)N(C)C(=O)OCc1ccc(NC(=O)[C@H](CCCNC(N)=O)NC(=O)[C@@H](NC(=O)CCOCCNC(=O)[C@H](CCC(=O)O)NC(=O)[C@H](CCC(=O)O)NC(=O)CCOCCOCCOCCOCCC(=O)NCCNc2ncc(-c3cc(C)cc(F)c3)c(N3CCC(N)CC3)c2-c2nc3ccc(Cl)cc3[nH]2)C(C)C)cc1)C(C)C` [Compound 190] (X3-EE[PEG1]V[Cit][PABC][NMeV]V[Dil][Dolaproine]-X2), the values for the EC50 (on SST2; in experiment [1]; in experiment [2]) were 14 nM, 0.33 nM and 3200 nM, respectively.
Take `CC[C@H](C)[C@@H]([C@@H](CC(=O)N1CCC[C@H]1[C@H](OC)[C@@H](C)C(=O)N[C@H](C)[C@@H](O)c1ccccc1)OC)N(C)C(=O)[C@@H](NC(=O)[C@H](C(C)C)N(C)C(=O)OCc1ccc(NC(=O)[C@H](CCCNC(N)=O)NC(=O)[C@@H](NC(=O)c2cc(NCCOCCC(=O)NCCNc3ncc(-c4cc(C)cc(F)c4)c(N4CCC(N)CC4)c3-c3nc4ccc(Cl)cc4[nH]3)cc(C(=O)NC[C@@H](N)C(=O)O)c2)C(C)C)cc1)C(C)C` [Compound 147]: the figures for the EC50 (at SST2; in experiment [1]; in experiment [2]) were 23 nM, 0.56 nM and 35 nM, respectively.
As to `CC[C@H](C)[C@@H]([C@@H](CC(=O)N1CCC[C@H]1[C@H](OC)[C@@H](C)C(=O)N[C@H](C)[C@@H](O)c1ccccc1)OC)N(C)C(=O)[C@@H](NC(=O)[C@H](C(C)C)N(C)C(=O)OCc1ccc(NC(=O)[C@H](CCCNC(N)=O)NC(=O)[C@@H](NC(=O)c2cc(NCCOCCC(=O)NCCNc3ncc(-c4cc(C)cc(F)c4)c(N4CCC(N)CC4)c3-c3nc4ccc(Cl)cc4[nH]3)cc(C(=O)NCC(=O)S(N)(=O)=O)c2)C(C)C)cc1)C(C)C` [Compound 188], the EC50 on SST2 turned out to be 2.7 nM; in experiment [1], 0.34 nM; in experiment [2], 670 nM.
As to `CC[C@H](C)[C@@H]([C@@H](CC(=O)N1CCC[C@H]1[C@H](OC)[C@@H](C)C(=O)N[C@H](C)[C@@H](O)c1ccccc1)OC)N(C)C(=O)[C@@H](NC(=O)[C@H](C(C)C)N(C)C(=O)OCc1ccc(NC(=O)[C@H](CCCNC(N)=O)NC(=O)[C@@H](NC(=O)CCCC(=O)N(C)CC(=O)NCCNc2ncc(-c3cc(C)cc(F)c3)c(N3CCC(N)CC3)c2-c2nc3ccc(Cl)cc3[nH]2)C(C)C)c(O[C@@H]2O[C@H](C(=O)O)[C@@H](O)[C@H](O)[C@H]2O)c1)C(C)C` [Compound 56], the EC50 was 68 nM on SST2, 0.81 nM in experiment [1] and 26 nM in experiment [2].
Turning to `CC[C@H](C)[C@@H]([C@@H](CC(=O)N1CCC[C@H]1[C@H](OC)[C@@H](C)C(=O)N[C@H](C)[C@@H](O)c1ccccc1)OC)N(C)C(=O)[C@@H](NC(=O)[C@H](C(C)C)N(C)C(=O)OCc1ccc(NC(=O)[C@@H](CCCNC(N)=O)NC(=O)[C@@H](NC(=O)CCOCCC(=O)NCCNc2ncc(-c3cc(C)cc(F)c3)c(N3CCC(N)CC3)c2-c2nc3ccc(Cl)cc3[nH]2)C(C)C)c(O[C@H]2[C@H](O)[C@@H](O)[C@H](O)[C@@H](C(=O)O)[C@H]2O)c1)C(C)C` [Compound 241], the values for the EC50 (at SST2; in experiment [1]; in experiment [2]) were 4.6 nM, 0.19 nM and 2900 nM, respectively.
